The source of these data is EP3875077B1, “DOSAGE FORM PROVIDING PROLONGED RELEASE OF […] SALT” (Grünenthal GmbH, priority 2020, dated 2021).

Counter-ions that a name gives are not always drawn. Like-named read-outs stand apart in the source and are kept apart here.

The data set can be described thus: thermodynamic solubility (saturation solubility) in various media, quantified by HPLC. The class given is physicochemical. The settings on record: for solubility thermodynamic at 24 h: thermodynamic from solid, read-out: thermodynamic solubility, assay expressed as base. On the procedure: The thermodynamic solubility of Tapentadol hydrochloride and of Tapentadol dihydrogenphosphate (mixed form, batch with fine particles) was determined as saturation solubility in various media at various pH values. The solutions were stirred for 24 hours at 25 °C and the pH values of the solutions at the start and at the end of the experiments were measured. The dissolved amount of Tapentadol was quantified by HPLC (free base of Tapentadol).

The term solubility (thermodynamic) denotes solubility found after equilibrating the solid with the medium. On to `CC[C@@H](c1cccc(O)c1)[C@@H](C)CN(C)C` [Tapentadol hydrochloride, (-)-(1R,2R)-3-(3-dimethylamino-1-ethyl-2-methyl-propyl)-phenol], for which the “thermodynamic solubility, assay expressed as base” value was determined as 31.2 g/100 mL (0.1 M HCl, 24 hours at 25 °C) and 6.6 g/100 mL (0.15N NaOH, 24 hours at 25 °C). In addition, the solubility (thermodynamic) at 24 h is, setting by setting: (acetate buffer pH 4.5, aqueous buffer, acetate pH 4.5, 24 hours at 25 °C) 327 mg/mL; (citrate buffer pH 6.8, aqueous buffer, citrate pH 6.8, 24 hours at 25 °C) 318 mg/mL; (citrate buffer pH 7.4, aqueous buffer, citrate pH 7.4, 24 hours at 25 °C) 319 mg/mL; (fassgf or other biorelevant, SIF sp pH 6.8, 24 hours at 25 °C) 324 mg/mL; (water, 24 hours at 25 °C) 330 mg/mL.
